Assay results taken from PubChem BioAssay (NCI).
Values joined by “and” are separate entries in the source; they are usually repeats but may differ in a detail not shown here. Equal entries are not always repeated.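 Method: 48-hour compound exposure of cells in 96-well plates, five concentrations, linear interpolation of endpoints. At the GI50, growth is halved. TGI marks complete inhibition of growth.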

Columns and labels:
Assay in all cases: inhibition of tumour cell growth, NCI panel, 48 h
[1] = tested on: MDA-N
[2] = tested on: DMS 273 small cell lung
[3] = tested on: M19-MEL melanoma
[4] = tested on: SNB-78 CNS
[5] = tested on: XF 498 CNS
[6] = tested on: RXF-631 renal
[7] = tested on: LXFL 529 NSCLC
[8] = tested on: DMS 114 small cell lung
[9] = tested on: HOP-18 NSCLC
[10] = tested on: SN12K1 renal

SMILES	TGI [1]	TGI [2]	TGI [3]	TGI [4]	TGI [5]	TGI [6]	TGI [7]	TGI [8]	TGI [9]	other results
COc1ccc2c(c1O)C13CCN(C)C(C2)C1CCC1(C3)OCCO1 (stereo unspecified)	> 100 µM									
COc1ccc2c(c1)C(=O)N1CCOC1C2C(=O)O (stereo unspecified)		11.2 µM	> 100 µM	> 100 µM	> 100 µM	> 100 µM	> 100 µM	> 100 µM	> 100 µM	
O=[N+]([O-])c1ccccc1N=Nc1c(O)[nH]c2ccc(Br)cc12	> 60.5 µM									
CC(=O)Oc1cc(C)c2c(c1OC(C)=O)CC1(O2)[C@@H](C)CCC2[C@@]3(C)CC[C@H](OC(C)=O)C(C)(C)C3CC[C@]21C (stereo partly specified)		4.46 µM	5.04 µM	4.64 µM		19.9 µM	16 µM	4.49 µM	6.81 µM	
N#CC(/C(=N/NC(=O)C(=O)NN)C(=O)Nc1nc([N+](=O)[O-])cs1)c1ccc(Cl)cc1 (stereo unspecified)			> 100 µM	> 100 µM	> 100 µM		> 100 µM	> 100 µM		
CC[O-].CC[O-].O=C([CH-]C(=O)c1cccnc1)c1ccccc1.O=C([CH-]C(=O)c1cccnc1)c1ccccc1.[Ti+4]		> 100 µM	> 100 µM	> 100 µM	90.6 µM	> 100 µM	> 100 µM	> 100 µM		GI50 [2]: 68.6 µM; GI50 [3]: 77.7 µM; GI50 [4]: > 100 µM; GI50 [5]: 32.8 µM; GI50 [6]: 25.9 µM; GI50 [7]: 43.6 µM; GI50 [8]: > 100 µM
O=C(Nc1ccccc1)c1nn(-c2cc(S(=O)(=O)O)c([N+](=O)[O-])cc2Cl)[n+](-c2cc(S(=O)(=O)[O-])c([N+](=O)[O-])cc2Cl)n1	> 100 µM									
C=C(C)C1Cc2c(cc(OC)c3c(=O)c4cccc(O)c4oc23)O1 (stereo unspecified)	53.1 µM									
CN(C)CCN(C)CC1COC(C)(C)O1 (stereo unspecified)		> 100 µM	> 100 µM	> 100 µM	> 100 µM		> 100 µM		> 100 µM	
S=C(N/N=C(/c1ccccc1)c1ccccn1)N1CCCCC1	2.26 µM and 2.62 µM									GI50 [1]: 0.118 µM
Cc1noc2cccc(OCc3ccccc3)c12		> 100 µM	> 100 µM	> 100 µM	> 100 µM	> 100 µM	> 100 µM	> 100 µM	> 100 µM	
CCN(CC)CCCn1cnc2ncccc2c1=O		> 100 µM	> 100 µM	> 100 µM			> 100 µM	> 100 µM		
Cc1oc2c(C)c3oc(=O)cc(C)c3cc2c1CNC(=O)[C@@H]1OCCOCCOCCOCCOCCOC1C(=O)O (stereo partly specified)		> 100 µM	> 100 µM	> 100 µM		> 100 µM	27.7 µM	> 100 µM	> 100 µM	
O=C(O)C1=CCCc2ccc3ccccc3c21		> 100 µM	> 100 µM	> 100 µM	> 100 µM	> 100 µM	> 100 µM	> 100 µM	> 100 µM	
Cc1ccccc1C1=[N+]([O-])c2ccccc2C1=O			28.5 µM		31.3 µM	42.8 µM	28.3 µM	27.4 µM	54.4 µM	
N#CC(C(=O)/C(=N/NC(=O)c1ccccc1O)C(C#N)c1ccccc1)c1ccccc1 (stereo unspecified)		> 100 µM	> 100 µM	> 100 µM	> 100 µM	> 100 µM	> 100 µM	> 100 µM	> 100 µM	
COC(c1cccc(C(O)(C(F)(F)F)C(F)(F)F)c1)(C(F)(F)F)C(F)(F)F		34.8 µM	30.5 µM		28.2 µM		32 µM	32.6 µM	32.1 µM	
COC(=O)C1CCC(Nc2ccc(C)cc2C)=N1 (stereo unspecified)		> 100 µM	> 100 µM	> 100 µM	> 100 µM	> 100 µM	> 100 µM		> 100 µM	

SMILES	TGI [1]	TGI [2]	TGI [3]	TGI [4]	TGI [5]	TGI [6]	TGI [7]	TGI [8]	TGI [9]	other results
C/C(=N\NC(N)=S)c1cc(C)c(C)cc1C		> 100 µM	74.2 µM	> 100 µM	50.3 µM	> 100 µM	> 100 µM	42.3 µM	> 100 µM	
O=C(C=Nc1ccccc1C(=O)[O-])c1cccs1.O=C(C=Nc1ccccc1C(=O)[O-])c1cccs1.[Co+2]			> 100 µM						> 100 µM	GI50 [3]: > 100 µM
CCOC(=O)/C(=N\OC)C(O)C(F)(F)F (stereo unspecified)	> 100 µM									
CC1(Cl)CC2OC3(Br)C=CC(C)(O)C2(CC1Br)C3(C)C (stereo unspecified)		> 100 µM	> 100 µM	> 100 µM			> 100 µM	> 100 µM	> 100 µM	
C/C=C/C1=C(Cl)C(=O)[C@@H](Cl)[C@@]1(O)C(=O)OC		9.61 µM	10.1 µM	39.4 µM	13.3 µM	43.9 µM	7.41 µM	> 34.4 µM	11 µM	TGI [10]: 4.48 µM
CC1OC(n2ccc(=O)[nH]c2=O)C=C(OC(=O)c2ccccc2)C1=O (stereo unspecified)		> 100 µM	> 100 µM	> 100 µM	> 100 µM				> 100 µM	
CCC1C(=O)OCc2c1cc1n(c2=O)Cc2cc3ccccc3nc2-1 (stereo unspecified)	> 100 µM									
O=C(CCC(=O)Nc1cccc(Cl)c1)CC(=O)c1ccc(F)cc1		> 100 µM		> 100 µM	> 100 µM					
CCC[CH2][Sn]([CH2]CCC)([O]C(=O)c1cc(F)ccc1F)[O][Sn]([CH2]CCC)([CH2]CCC)[O]C(=O)c1cc(F)ccc1F	1.46 µM	1.56 µM	0.459 µM	1.59 µM	0.305 µM		0.155 µM	0.25 µM	1.67 µM	GI50 [1]: 0.239 µM; GI50 [2]: 0.331 µM; GI50 [3]: 0.0854 µM; GI50 [4]: 0.222 µM; GI50 [5]: 0.16 µM; GI50 [7]: 0.0185 µM; GI50 [8]: 0.0832 µM; GI50 [9]: 0.654 µM
[Cl][Sn]([Cl])([c]1ccccc1)[c]1ccccc1			68.6 µM	56.7 µM	6.21 µM		2.93 µM	> 100 µM	31.8 µM	GI50 [3]: 19.5 µM; GI50 [4]: 9.33 µM; GI50 [5]: 2.58 µM; GI50 [7]: 1.53 µM; GI50 [8]: 2.67 µM; GI50 [9]: 17.9 µM
O=C1c2cccnc2C(=O)C2C3C=CC(C3)C12 (stereo unspecified)	13.2 µM									
Cc1nc(-c2ccccc2)c(Cc2ccccc2O)c(=O)[nH]1	> 100 µM									
O=S(=O)(N/N=C/c1ccc(Cl)c(Cl)c1)c1ccccc1		> 100 µM	> 100 µM	> 100 µM	> 100 µM		> 100 µM	87 µM	> 100 µM	
CCOC(=O)c1c(-c2ccccc2)oc(-c2ccccc2)c1C(=O)OCC		> 100 µM	> 100 µM	> 100 µM	> 100 µM		> 100 µM	> 100 µM	> 100 µM	
Cc1cc(Cl)cc2c(N=Nc3ccccc3[N+](=O)[O-])c(O)[nH]c12	> 100 µM									
Cn1c2c(c3ccccc31)CCN(CCN1CCN(c3ccccc3)CC1)C2=O		> 100 µM			61.3 µM	> 100 µM	> 100 µM	> 100 µM	> 100 µM	
CC(=O)O[C@@]12CO[C@@H]1C[C@H](O)[C@@]1(C)C(=O)[C@H](O)C3=C(C)[C@@H](OC(=O)[C@H](O)[C@@H](NC(=O)OC(C)(C)C)c4ccccc4)C[C@@](O)([C@@H](OC(=O)c4ccccc4)[C@H]21)C3(C)C		17.4 µM	21.2 µM			> 56.7 µM	> 100 µM	0.0525 µM and 0.0223 µM	74.5 µM	GI50 [2]: 0.0112 µM and 0.0271 µM; GI50 [3]: 0.0114 µM; GI50 [5]: 0.0397 µM and 0.0317 µM; GI50 [6]: 0.297 µM; GI50 [7]: 0.0356 µM and 0.0257 µM; GI50 [8]: 0.00368 µM and 0.00371 µM
Nc1nc(N)c(Cn2ccnc2)c(=O)[nH]1	> 100 µM									
